{
  "source": "patent US8481546B2",
  "about": "“CGRP receptor antagonist” (Bristol-Myers Squibb Company, priority 2010, dated 2013)",
  "key": {"[1]": {"assay": "Intravenous exposure in rats (reference for bioavailability)", "conditions": "rat, in vivo, intravenous administration of 1 mg/kg, read-out: AUC0-24 h"}, "[2]": {"system": "olfactory epithelium (nasal turbinates)", "format": "in vivo, rats", "source_text": "Compound I and Compound II were also compared directly for intranasal irritation. […] The only endpoint evaluated in this study was histological evaluation of the nasal turbinates."}, "[3]": {"biological_target": "T1, CGRP receptor, SK-N-MC cell membrane preparation (Homo sapiens, UniProt O60894+Q16602)", "T1 construct": "endogenous in cells; host or cells: SK-N-MC human neuroblastoma cells (membrane homogenate or attached whole cells)", "T1 sequence (Q16602 23-461)": "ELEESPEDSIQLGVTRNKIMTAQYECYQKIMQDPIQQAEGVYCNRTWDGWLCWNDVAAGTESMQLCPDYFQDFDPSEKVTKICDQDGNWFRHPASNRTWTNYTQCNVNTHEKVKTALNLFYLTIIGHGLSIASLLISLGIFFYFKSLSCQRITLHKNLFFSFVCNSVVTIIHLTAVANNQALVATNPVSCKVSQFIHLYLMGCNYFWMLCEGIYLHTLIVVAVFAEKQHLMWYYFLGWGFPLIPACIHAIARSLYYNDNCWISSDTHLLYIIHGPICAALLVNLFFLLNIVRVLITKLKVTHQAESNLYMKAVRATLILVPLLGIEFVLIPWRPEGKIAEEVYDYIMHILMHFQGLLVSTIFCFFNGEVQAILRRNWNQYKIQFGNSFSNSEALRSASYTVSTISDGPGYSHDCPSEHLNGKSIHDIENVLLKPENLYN", "T1 sequence (O60894 27-148)": "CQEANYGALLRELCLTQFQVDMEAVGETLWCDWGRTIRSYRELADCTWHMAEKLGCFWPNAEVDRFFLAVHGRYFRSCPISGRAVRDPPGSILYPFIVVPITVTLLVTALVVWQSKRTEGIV", "assay": "Saturation binding of [125I]CGRP with or without Compound I", "experimental": "The nature of the interaction between the endogenous CGRP peptide and Compound I is studied in detail using saturation binding experiments. Briefly, the binding of [^125I]CGRP to the SK-N-MC cell membrane preparation is measured with increasing concentration of [^125I]CGRP without (control condition) or in the presence of (test conditions) one of the two concentrations (30 pM and 100 pM) of Compound I. Saturation data are analyzed with hyperbolic equations using Kell software (Biosoft, Cambridge, UK) to estimate dissociation constant (Kd) and the maximum number of binding sites (Bmax). The impact of the addition of Compound I to the binding parameters (Kd, Bmax) of [^125I]CGRP is measured and compared."}, "[4]": {"biological_target": "T2, CGRP receptor in attached whole SK-N-MC cells (Homo sapiens, UniProt O60894+Q16602)", "T2 construct": "endogenous in cells; host or cells: SK-N-MC human neuroblastoma cells (membrane homogenate or attached whole cells)", "T2 sequence (Q16602 23-461)": "as the sequence (Q16602 23-461) above", "T2 sequence (O60894 27-148)": "as the sequence (O60894 27-148) above", "assay": "Cellular functional assay, cyclic AMP assay", "format": "cell-based", "conditions": "0.3 nM CGRP", "experimental": "The CGRP receptor complex is coupled to the Gs class of G proteins. Binding of CGRP to this complex leads to the production of cyclic AMP (adenosine 3′S′-cyclic monophosphate) via Gs-dependent activation of adenylate cyclase.\nFunctional antagonism by Compound I is determined by measuring its ability to inhibit CGRP-stimulated formation of cyclic AMP in attached whole SK-N-MC cells. SK-N-MC cells are incubated at room temperature with 0.3 nM CGRP alone for 30 minutes, or pre-incubated with various concentrations of Compound I for 15 minutes before the addition of 0.3 nM CGRP and then further incubated for 30 minutes. The Cyclic AMP (cAMP) produced is extracted using the “Lysis Reagent” and its concentration is determined by radioimmunoassay using RPA559 cAMP SPA Direct Screening Assay Kit (Amersham Pharmacia Biotech). IC50 values are defined as the concentration of compound required to inhibit 50% of 0.3 nM CGRP-stimulated cAMP production. Ymax is defined as maximal percent inhibition of 0.3 nM CGRP-stimulated cAMP production."}, "[5]": {"system": "CGRP-induced increases in marmoset facial blood flow", "assay": "Marmoset facial blood flow", "format": "in vivo, common marmosets (Callithrix jacchus)", "experimental": "To evaluate the in vivo efficacy of novel CGRP receptor antagonists, marmosets receive a series of four intravenous injections of hαCGRP (at 45 min intervals). The first serves as a baseline control, and is followed by subcutaneous delivery of test article. The subsequent three CGRP challenges provide an assessment of functional CGRP antagonism in vivo.\nAdult male and female common marmosets (Callithrix jacchus) weighing 350-650 g serve as subjects.\nAnimals are anesthetized by isoflurane inhalation in an induction chamber (4-5% rapid induction, maintained with 1-2.5%; Solomon et al., 1999). Anesthesia is maintained by delivering a constant supply of air:oxygen (50:50) and isoflurane via intubation and ventilation (with blood gas monitoring). Body temperature is maintained at 38±0.5° C. by placement on an automated temperature controlled surface with rectal probe. A small area of fur (approx. 1.5 cm square) is removed from one or both sides of the face by application of a depilatory cream and/or shaving. Surgical areas are clipped and prepared with betadine. An IV line is placed in the saphenous vein for the administration of test compounds and the CGRP receptor agonist hαCGRP. Additionally this IV line provides for withdrawal of blood samples (max 2.5 ml, 10%) for blood gas monitoring and analysis of compound plasma levels. A solution of 5% dextrose is administered IV in order to maintain blood sugar levels. Anesthesia depth is monitored by measuring blood pressure and heart rate using a non-invasive arm cuff method and a pulse oximeter, respectively. […] Microvascular blood flow is monitored by attaching a self adhesive laser Doppler flow probe to the facial skin. The probe records the number of red blood cells crossing the path of two laser beams, multiplied by their velocity (reported as changes in flux).\nTest compounds are administered SC (0.1-0.6 ml/kg) in the nape of the neck. The CGRP-receptor agonist, hαCGRP is delivered IV (1 ml/kg) at a dose of 10 μg/kg.\nTo assess in vivo efficacy and duration of action, a control increase in facial blood flow is induced by administration of hαCGRP (10 μg/kg IV) 30 min prior (−0.5 hr) to drug delivery. Compound I is then administered at time zero (0 min) and repeat hαCGRP are delivered at 45 min intervals for ˜2 hr (data collected at 0.25, 1 and 1.75 hrs post-dose). Compound I is dosed at 0.003, 0.01 and 0.03 mg/kg, SC. Plasma samples are obtained just before each hαCGRP administration. Following testing, animals are returned to the transport cage which is placed on a temperature controlled surface that keep the animals warm until fully awake and ambulatory. Animals may be tested again after a 14-21 day rest and washout period."}, "[6]": {"conditions": "25 μL/nostril, 75 mg/ml, 3.75 mg/rat/day (0.268 mg/cm^2)"}, "[7]": {"conditions": "25 μL/nostril, 175 mg/ml, 8.75 mg/rat/day (0.625 mg/cm^2)"}, "[8]": {"conditions": "100 μL/nostril, 175 mg/ml, 35 mg/rat/day (2.500 mg/cm^2)"}, "[9]": {"conditions": "in the presence of 30 pM Compound I"}, "[10]": {"conditions": "in the presence of 100 pM Compound I"}, "[11]": {"conditions": "marmoset, efficacy vs. exposure"}},
  "note": "Read-outs that look alike come from different tables or passages of the source.",
  "data": [
    {"compound": "Cc1cc(C[C@@H](NC(=O)N2CCC(c3cc4ccccc4[nH]c3=O)CC2)C(=O)N2CCN(C3CCN(C)CC3)CC2)cc2cn[nH]c12", "note": "[Compound I, (R)—N-(3-(7-methyl-1H-indazol-5-yl)-1-(4-(1-methylpiperidin-4-yl)piperazin-1-yl)-1-oxopropan-2-yl)-4-(2-oxo-1,2-dihydroquinolin-3-yl)piperidine-1-carboxamide]", "values": [
      {"measurement": "AUC(0-t)", "setting": "[1]", "result": 7.7, "unit": "µM·h"},
      {"measurement": "Olfactory epithelial toxicity, number of animals with severity None", "setting": "[2]; 12.5 μL/nostril, 75 mg/ml, 1.875 mg/rat/day (0.134 mg/cm^2)", "result": 5},
      {"measurement": "Olfactory epithelial toxicity, number of animals with severity None", "setting": "[2]; 12.5 μL/nostril, 175 mg/ml, 4.375 mg/rat/day (0.313 mg/cm^2)", "result": 5},
      {"measurement": "Olfactory epithelial toxicity, number of animals with severity Minimal", "setting": "[2]; [6]", "result": 3},
      {"measurement": "Olfactory epithelial toxicity, number of animals with severity None", "setting": "[2]; [6]", "result": 2},
      {"measurement": "Olfactory epithelial toxicity, number of animals with severity Minimal", "setting": "[2]; [7]", "result": 1},
      {"measurement": "Olfactory epithelial toxicity, number of animals with severity None", "setting": "[2]; [7]", "result": 4},
      {"measurement": "Olfactory epithelial toxicity, number of animals with severity Slight", "setting": "[2]; 100 μL/nostril, 75 mg/ml, 15 mg/rat/day (1.071 mg/cm^2)", "result": 5},
      {"measurement": "Olfactory epithelial toxicity, number of animals with severity Mild", "setting": "[2]; [8]", "result": 4},
      {"measurement": "Olfactory epithelial toxicity, number of animals with severity Slight", "setting": "[2]; [8]", "result": 1},
      {"measurement": "Bmax of [125I]CGRP", "setting": "[3]; [9]", "result": "112.1 ± 20.6", "unit": "fmol/mg protein"},
      {"measurement": "Kd of [125I]CGRP", "setting": "[3]; [9]", "result": "0.058 ± 0.0196", "unit": "nM"},
      {"measurement": "Bmax of [125I]CGRP", "setting": "[3]; [10]", "result": "146.8 ± 6.4", "unit": "fmol/mg protein"},
      {"measurement": "Kd of [125I]CGRP", "setting": "[3]; [10]", "result": "0.1297 ± 0.0319", "unit": "nM"},
      {"measurement": "Ymax, maximal percent inhibition of CGRP-stimulated cAMP production", "setting": "[4]", "result": "95.4 (±1.3) %"},
      {"measurement": "IC50", "setting": "[4]; read-out: IC50, inhibition of CGRP-stimulated cAMP production", "result": "0.0386 ± 0.0042", "unit": "nM"},
      {"measurement": "inhibition of CGRP-induced increases in facial blood flow", "setting": "[5]; 0.003 mg/kg SC, at 0.25 hr", "result": 20, "unit": "%"},
      {"measurement": "inhibition of CGRP-induced increases in facial blood flow", "setting": "[5]; 0.003 mg/kg SC, later test times", "result": "no effect"},
      {"measurement": "inhibition of CGRP-induced increases in facial blood flow", "setting": "[5]; 0.01 mg/kg SC, across all post-dose test times", "result": "35-40%"},
      {"measurement": "inhibition of CGRP-induced increases in facial blood flow", "setting": "[5]; 0.03 mg/kg SC, at 0.25, 1 and 1.75 hr post-dose", "result": "53-80%"},
      {"measurement": "plasma levels associated with maximal efficacy", "setting": "[5]; [11]", "result": "≥ 25", "unit": "nM"},
      {"measurement": "plasma levels associated with significant in vivo efficacy", "setting": "[5]; [11]", "result": "≥ 8", "unit": "nM"}
    ]}
  ]
}
